Results from PubChem BioAssay AID1845209 (Molecular Pharmacology Branch, DTP, NCI, 2023).
pIC50: −log10 of the molar value.

Tested on: NCI-H211 tumor spheroids, viability percent test/control
Test: Anticancer human tumor NCI-H211 cell line growth inhibition;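 note: spheroids exposed to agents for seven days before readout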
Conditions: spheroids with HUVEC and MSC; for pIC50: curve of first compound; for viability, T/C: stronger effect = lower value
How it was run: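 Complex tumor spheroids combined malignant cells with endothelial cells and mesenchymal stem cells. DNA-damaging drugs and DNA repair inhibitors were tested alone and in combination, at half-log dilutions down from clinical Cmax (top 10 microM if Cmax unknown), 0.25% DMSO final.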

[1] = second compound 30 pM, first compound 0.0316 µM
[2] = second compound 30 pM, first compound 0.1 µM
[3] = second compound 30 pM, first compound 0.316 µM
[4] = second compound 30 pM, first compound 1 µM
[5] = second compound 30 pM, first compound 3.16 µM
[6] = second compound 30 pM, first compound 10 µM
[7] = second compound 94.9 pM, first compound 0.0316 µM
[8] = second compound 94.9 pM, first compound 0.1 µM
[9] = second compound 94.9 pM, first compound 0.316 µM
[10] = second compound 94.9 pM, first compound 1 µM
[11] = second compound 94.9 pM, first compound 3.16 µM
[12] = second compound 94.9 pM, first compound 10 µM
[13] = second compound 0.0003 µM, first compound 0.0316 µM
[14] = second compound 0.0003 µM, first compound 0.1 µM
[15] = second compound 0.0003 µM, first compound 0.316 µM
[16] = second compound 0.0003 µM, first compound 1 µM
[17] = second compound 0.0003 µM, first compound 3.16 µM
[18] = second compound 0.0003 µM, first compound 10 µM
[19] = second compound 0.000949 µM, first compound 0.0316 µM
[20] = second compound 0.000949 µM, first compound 0.1 µM
[21] = second compound 0.000949 µM, first compound 0.316 µM
[22] = second compound 0.000949 µM, first compound 1 µM
[23] = second compound 0.000949 µM, first compound 3.16 µM
[24] = second compound 0.000949 µM, first compound 10 µM
[25] = second compound 0.003 µM, first compound 0.0316 µM
[26] = second compound 0.003 µM, first compound 0.1 µM
[27] = second compound 0.003 µM, first compound 0.316 µM
[28] = second compound 0.003 µM, first compound 1 µM
[29] = second compound 0.003 µM, first compound 3.16 µM
[30] = second compound 0.003 µM, first compound 10 µM

## CC(C)n1c(=O)n(C)c2cnc3cc(F)c(-c4ccc(OCCCN5CCCCC5)nc4)cc3c21 + COc1cc2c(cc1O)CCNC21CSC2c3c(OC(C)=O)c(C)c4c(c3C(COC1=O)N1C(O)C3Cc5cc(C)c(OC)c(O)c5C(C21)N3C)OCO4
Second compound 30 pM
  pIC50: > 7.50
Second compound 94.9 pM
  pIC50: > 7.50
Second compound 0.0003 µM
  pIC50: > 7.50
Second compound 0.000949 µM
  pIC50: > 7.50
Second compound 0.003 µM
  pIC50: > 7.50
[1]
  viability, T/C: 27%
[2]
  viability, T/C: 15.3%
[3]
  viability, T/C: 15.5%
[4]
  viability, T/C: 12.7%
[5]
  viability, T/C: 9.25%
[6]
  viability, T/C: 0.77%
[7]
  viability, T/C: 0.99%
[8]
  viability, T/C: 0.88%
[9]
  viability, T/C: 1.06%
[10]
  viability, T/C: 0.96%
[11]
  viability, T/C: 0.8%
[12]
  viability, T/C: 0.42%
[13]
  viability, T/C: 0.68%
[14]
  viability, T/C: 0.74%
[15]
  viability, T/C: 0.77%
[16]
  viability, T/C: 1.03%
[17]
  viability, T/C: 0.82%
[18]
  viability, T/C: 0.31%
[19]
  viability, T/C: 0.69%
[20]
  viability, T/C: 0.69%
[21]
  viability, T/C: 0.71%
[22]
  viability, T/C: 0.72%
[23]
  viability, T/C: 0.7%
[24]
  viability, T/C: 0.5%
[25]
  viability, T/C: 0.12%
[26]
  viability, T/C: 0.17%
[27]
  viability, T/C: 0.11%
[28]
  viability, T/C: 0.1%
[29]
  viability, T/C: 0.12%
[30]
  viability, T/C: 0.16%

## COc1ccc([C@@H](O)c2cc(-c3ncnc4cc(N5CCOCC5)ccc34)c(F)cc2Cl)nn1 + COc1cc2c(cc1O)CCNC21CSC2c3c(OC(C)=O)c(C)c4c(c3C(COC1=O)N1C(O)C3Cc5cc(C)c(OC)c(O)c5C(C21)N3C)OCO4
Second compound 30 pM
  pIC50: 6.23
Second compound 94.9 pM
  pIC50: > 7.50
Second compound 0.0003 µM
  pIC50: > 7.50
Second compound 0.000949 µM
  pIC50: > 7.50
Second compound 0.003 µM
  pIC50: > 7.50
[1]
  viability, T/C: 104%
[2]
  viability, T/C: 91.7%
[3]
  viability, T/C: 71.9%
[4]
  viability, T/C: 33%
[5]
  viability, T/C: 1.14%
[6]
  viability, T/C: 0.29%
[7]
  viability, T/C: 20.6%
[8]
  viability, T/C: 12.6%
[9]
  viability, T/C: 4.86%
[10]
  viability, T/C: 0.5%
[11]
  viability, T/C: 0.35%
[12]
  viability, T/C: 0.2%
[13]
  viability, T/C: 0.7%
[14]
  viability, T/C: 0.77%
[15]
  viability, T/C: 0.73%
[16]
  viability, T/C: 0.58%
[17]
  viability, T/C: 0.36%
[18]
  viability, T/C: 0.11%
[19]
  viability, T/C: 0.63%
[20]
  viability, T/C: 0.64%
[21]
  viability, T/C: 0.51%
[22]
  viability, T/C: 0.16%
[23]
  viability, T/C: 0.02%
[24]
  viability, T/C: 0.11%
[25]
  viability, T/C: 0.1%
[26]
  viability, T/C: 0.11%
[27]
  viability, T/C: 0.1%
[28]
  viability, T/C: 0.1%
[29]
  viability, T/C: 0.1%
[30]
  viability, T/C: 0.16%

## O=C(c1cc(Cc2n[nH]c(=O)c3ccccc23)ccc1F)N1CCN(C(=O)C2CC2)CC1 + Cn1nnc2c(C(N)=O)ncn2c1=O
Second compound 1 µM
  pIC50: > 7.02
Second compound 3.16 µM
  pIC50: > 7.02
Second compound 10 µM
  pIC50: > 7.02
Second compound 31.6 µM
  pIC50: > 7.02
Second compound 100 µM
  pIC50: > 7.02
Second compound 1 µM, first compound 0.0949 µM
  viability, T/C: 38.8%
Second compound 1 µM, first compound 0.3 µM
  viability, T/C: 24.3%
Second compound 1 µM, first compound 0.949 µM
  viability, T/C: 9.48%
Second compound 1 µM, first compound 3 µM
  viability, T/C: 11.2%
Second compound 1 µM, first compound 9.49 µM
  viability, T/C: 7.85%
Second compound 1 µM, first compound 30 µM
  viability, T/C: 6.43%
Second compound 3.16 µM, first compound 0.0949 µM
  viability, T/C: 39.2%
Second compound 3.16 µM, first compound 0.3 µM
  viability, T/C: 16.4%
Second compound 3.16 µM, first compound 0.949 µM
  viability, T/C: 12.2%
Second compound 3.16 µM, first compound 3 µM
  viability, T/C: 8.6%
Second compound 3.16 µM, first compound 9.49 µM
  viability, T/C: 8.67%
Second compound 3.16 µM, first compound 30 µM
  viability, T/C: 6.42%
Second compound 10 µM, first compound 0.0949 µM
  viability, T/C: 20.4%
Second compound 10 µM, first compound 0.3 µM
  viability, T/C: 13.6%
Second compound 10 µM, first compound 0.949 µM
  viability, T/C: 8.65%
Second compound 10 µM, first compound 3 µM
  viability, T/C: 8.76%
Second compound 10 µM, first compound 9.49 µM
  viability, T/C: 8.42%
Second compound 10 µM, first compound 30 µM
  viability, T/C: 5.87%
Second compound 31.6 µM, first compound 0.0949 µM
  viability, T/C: 9.76%
Second compound 31.6 µM, first compound 0.3 µM
  viability, T/C: 10.7%
Second compound 31.6 µM, first compound 0.949 µM
  viability, T/C: 8.79%
Second compound 31.6 µM, first compound 3 µM
  viability, T/C: 8.73%
Second compound 31.6 µM, first compound 9.49 µM
  viability, T/C: 8.23%
Second compound 31.6 µM, first compound 30 µM
  viability, T/C: 6.62%
Second compound 100 µM, first compound 0.0949 µM
  viability, T/C: 10.7%
Second compound 100 µM, first compound 0.3 µM
  viability, T/C: 9.41%
Second compound 100 µM, first compound 0.949 µM
  viability, T/C: 10.1%
Second compound 100 µM, first compound 3 µM
  viability, T/C: 9.99%
Second compound 100 µM, first compound 9.49 µM
  viability, T/C: 8.37%
Second compound 100 µM, first compound 30 µM
  viability, T/C: 6.94%
